One compound from BindingDB's records for doi:10.1021/acs.jmedchem.9b02101 (Kyorin Pharmaceutical, 2020) can be followed below.

A short description of assay [1]: Agonist activity at FPR2 in mouse peritoneal macrophages assessed as stimulation of phagocytosis preincubated for 15 mins followed by FITC labeled zymosan addition and measured after 45 mins by Trypan blue staining based fluorescence assay.
Assay [2] in a line: Agonist activity at FPR2 in human HL-60 cells assessed as reduction in chemoattractant induced chemotaxis by luminescence cell viability assay.

With `COc1cc(F)c([C@@H]2CNC(=O)[C@H]2NC(=O)Nc2ccccc2)c(F)c1`, the EC50 (in general, the concentration that produces a half-maximal response) in assay [1] is below 1 nM. Moreover, the IC50 (commonly the concentration that inhibits the measured activity by half) in assay [2] was found to be 57 nM.
